PubChem BioAssay (NCI)
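These data come from cells grown in 96-well plates and exposed to compound for 48 hours at five concentrations. GI50 is the concentration that inhibits growth by half. TGI: total growth inhibition.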

Legend:
Assay in all cases: DTP human tumour cell line panel, 48 h
[1] = system: A498 renal
[2] = system: CCRF-CEM leukemia
[3] = system: EKVX NSCLC
[4] = system: IGROV1 ovarian
[5] = system: K-562 leukemia
[6] = system: LOX IMVI melanoma
[7] = system: NCI-H226 lung
[8] = system: OVCAR-4 ovarian
[9] = system: OVCAR-5 ovarian
[10] = system: SNB-19 CNS

Row | SMILES | GI50 [1] | TGI [1] | GI50 [2] | TGI [2] | GI50 [3] | TGI [3] | GI50 [4] | TGI [4] | GI50 [5] | TGI [5] | GI50 [6] | TGI [6] | GI50 [7] | TGI [7] | GI50 [8] | TGI [8] | GI50 [9] | TGI [9] | GI50 [10] | TGI [10]
1 | CCCCSc1nc(N)c2cn[nH]c2n1 | 15.9 µM | 31 µM | 23.6 µM | 68 µM | 15.6 µM | 57.3 µM | 29.5 µM | > 100 µM | 29.7 µM | > 100 µM | 29.9 µM | > 88.6 µM | 15.6 µM | 36.6 µM | 23.6 µM | 70.4 µM | 16.6 µM | 54.3 µM | 37.3 µM | > 76.8 µM
2 | CC(C)(C)C(=O)c1c(C(F)(F)F)n([O-])c2cc(Cl)c(Cl)cc2[n+]1=O | 1.33 µM | 2.6 µM | 0.619 µM | 1.19 µM | 1.91 µM | 3.4 µM | 0.077 µM | 0.213 µM | 0.582 µM | 1.15 µM | 1.04 µM |  | 1.6 µM | 3.12 µM | 1.14 µM | 2.37 µM | 0.642 µM | 2.19 µM | 0.609 µM | 1.28 µM
3 | O=c1cc(-c2ccccc2)oc2cc(OCCCCCN3CCOCC3)cc(O)c12 | 33.7 µM | 82.9 µM | 94.5 µM | > 100 µM | > 100 µM | > 100 µM | 47.4 µM | > 100 µM | 29 µM | > 100 µM | > 100 µM | > 100 µM | > 100 µM | > 100 µM | > 100 µM | > 100 µM | 18.1 µM | 95.3 µM | 23.9 µM | 71.6 µM
4 | OC(CN1CCCC2CCCCC21)c1cc2ccccc2c2ccccc12 (centres undefined) | 2.21 µM | 5.8 µM | 1.87 µM | 5.2 µM | 1.56 µM | 3.54 µM | 2.59 µM | 8.66 µM | 1.68 µM | 3.39 µM | 1.53 µM | 2.93 µM | 2.14 µM | 6.32 µM | 2.39 µM | 12.4 µM | 1.95 µM | 5.64 µM | 3.52 µM | 15.1 µM
5 | CC(C)c1[nH]nc2c(NCc3ccc(-c4ccccn4)cc3)nc(SCCN(C)C)nc12 | 0.0563 µM | 0.164 µM | 0.0246 µM | 4.87 µM | 0.0494 µM | 2.54 µM | 0.0579 µM | 13.7 µM | < 0.021 µM | 10.3 µM | 0.123 µM | 11.1 µM | 0.24 µM | 0.706 µM | 0.0349 µM | 1.53 µM | 0.0572 µM | 11.2 µM | 0.0244 µM | 12.6 µM
6 | CNCC(=O)NC(CO)C(=O)NC(CO)C(=O)NC1C(C(N)=O)OC(n2ccc(N)nc2=O)C(O)C1O (centres undefined) | 13 µg/mL | > 50 µg/mL | > 50 µg/mL | > 50 µg/mL | 7.9 µg/mL | 31.8 µg/mL | 3.33 µg/mL | 26.4 µg/mL | > 50 µg/mL | > 50 µg/mL | 2.43 µg/mL | 15.9 µg/mL | 1.65 µg/mL | 13.9 µg/mL | 0.495 µg/mL | 3.41 µg/mL | 9.43 µg/mL | > 50 µg/mL | 6.5 µg/mL | 45.1 µg/mL
7 | CSc1ccc(NC(=O)Nc2cc(C)ccn2)cc1 |  | > 100 µM |  | > 100 µM |  | > 100 µM |  | > 100 µM |  | > 100 µM |  | > 100 µM |  | > 100 µM |  | > 100 µM |  | > 100 µM |  | > 100 µM
8 | COC(=O)C12C34C=CC5(CCC6(C=CC1(CC3)O6)C52C(=O)OC)O4 (centres undefined) |  | > 100 µM |  | > 100 µM |  | > 100 µM |  | > 100 µM |  | > 100 µM |  | > 100 µM |  | > 100 µM |  | > 100 µM |  | > 100 µM |  | > 100 µM
9 | CC1=NN(c2cccc(Cl)c2)C(=O)/C1=C\C=C\c1ccccc1 | 17.7 µM | > 100 µM | 3.14 µM | > 100 µM | 3.04 µM | > 100 µM | 1.67 µM | 4.23 µM | 2.88 µM | > 100 µM | 1.48 µM | 3.15 µM | 2.68 µM | 7.62 µM | 3.37 µM | > 100 µM | 2.81 µM | 7.83 µM | 5.67 µM | > 100 µM
10 | COC(=O)c1ccc(C(=O)OC)c2nc3cc(Cl)ccc3nc12 |  | > 100 µM |  | > 100 µM |  | > 100 µM |  | > 100 µM |  | > 100 µM |  | > 100 µM |  | > 100 µM |  | > 100 µM |  | > 100 µM |  | > 100 µM
11 | CN(C)C(=S)/N=c1\ssc(=S)n1Cc1ccco1 |  | > 74.2 µM |  | 42.3 µM |  | > 100 µM |  | > 100 µM |  | > 55.7 µM |  | > 100 µM |  | > 100 µM |  | 66.8 µM |  | > 100 µM |  | > 78.4 µM
